According to the NIST ThermoML archive (doi:10.1021/je600519p):

Test: xn = mol fraction of the nth substance listed
Conditions: 101 kPa, Liquid

CCOC(=O)OCC [diethyl carbonate] + CCCCCCO
Conditions | mass density [kg/m3] | speed of sound [m/s] | viscosity [mPa·s]
293.15 K, x1 = 0.0502 | 825.96 | 1301 | 4.731
293.15 K, x1 = 0.1123 | 834.86 | 1291 | 4.164
293.15 K, x1 = 0.1499 | 840.29 | 1285 | 3.715
293.15 K, x1 = 0.2103 | 849.1 | 1275 | 3.178
293.15 K, x1 = 0.2508 | 855.05 | 1268 | 2.837
293.15 K, x1 = 0.3121 | 864.19 | 1259 | 2.382
293.15 K, x1 = 0.3576 | 871.02 | 1252 | 2.078
293.15 K, x1 = 0.4113 | 879.15 | 1245 | 1.757
293.15 K, x1 = 0.4632 | 887.08 | 1239 | 1.488
293.15 K, x1 = 0.5111 | 894.51 | 1234 | 1.247
293.15 K, x1 = 0.552 | 900.88 | 1230 | 1.115
293.15 K, x1 = 0.6008 | 908.59 | 1226 | 0.956
293.15 K, x1 = 0.6498 | 916.39 | 1222 | 0.863
293.15 K, x1 = 0.7108 | 926.19 | 1219 | 0.859
293.15 K, x1 = 0.7554 | 933.45 | 1216 | 0.84
293.15 K, x1 = 0.8112 | 942.65 | 1213 | 0.831
293.15 K, x1 = 0.8501 | 949.13 | 1211 | 0.825
293.15 K, x1 = 0.9002 | 957.5 | 1208 | 0.818
293.15 K, x1 = 0.9555 | 966.89 | 1206 | 0.803
303.15 K, x1 = 0.0502 | 818.55 | 1267 | 3.486
303.15 K, x1 = 0.1123 | 827.16 | 1256 | 3.03
303.15 K, x1 = 0.1499 | 832.48 | 1249 | 2.796
303.15 K, x1 = 0.2103 | 841.04 | 1240 | 2.403
303.15 K, x1 = 0.2508 | 846.79 | 1234 | 2.165
303.15 K, x1 = 0.3121 | 855.69 | 1225 | 1.859
303.15 K, x1 = 0.3576 | 862.23 | 1217 | 1.621
303.15 K, x1 = 0.4113 | 870.21 | 1210 | 1.414
303.15 K, x1 = 0.4632 | 877.88 | 1204 | 1.22
303.15 K, x1 = 0.5111 | 885.13 | 1200 | 1.063
303.15 K, x1 = 0.552 | 891.35 | 1197 | 0.951
303.15 K, x1 = 0.6008 | 898.87 | 1194 | 0.844
303.15 K, x1 = 0.6498 | 906.42 | 1193 | 0.811
303.15 K, x1 = 0.7108 | 915.93 | 1192 | 0.804
303.15 K, x1 = 0.7554 | 923.08 | 1191 | 0.774
303.15 K, x1 = 0.8112 | 932.03 | 1190 | 0.748
303.15 K, x1 = 0.8501 | 938.29 | 1189 | 0.73
303.15 K, x1 = 0.9002 | 946.57 | 1188 | 0.724
303.15 K, x1 = 0.9555 | 955.77 | 1187 | 0.713
313.15 K, x1 = 0.0502 | 811.04 | 1252 | 2.621
313.15 K, x1 = 0.1123 | 819.37 | 1236 | 2.339
313.15 K, x1 = 0.1499 | 824.54 | 1224 | 2.115
313.15 K, x1 = 0.2103 | 832.78 | 1211 | 1.856
313.15 K, x1 = 0.2508 | 838.35 | 1203 | 1.687
313.15 K, x1 = 0.3121 | 846.97 | 1192 | 1.466
313.15 K, x1 = 0.3576 | 853.42 | 1185 | 1.319
313.15 K, x1 = 0.4113 | 861.12 | 1177 | 1.16
313.15 K, x1 = 0.4632 | 868.59 | 1170 | 1.031
313.15 K, x1 = 0.5111 | 875.61 | 1165 | 0.912
313.15 K, x1 = 0.552 | 881.55 | 1162 | 0.826
313.15 K, x1 = 0.6008 | 888.91 | 1158 | 0.744
313.15 K, x1 = 0.6498 | 896.35 | 1155 | 0.689
313.15 K, x1 = 0.7108 | 905.65 | 1153 | 0.61
313.15 K, x1 = 0.7554 | 912.55 | 1152 | 0.607
313.15 K, x1 = 0.8112 | 921.16 | 1151 | 0.602
313.15 K, x1 = 0.8501 | 927.49 | 1150 | 0.606
313.15 K, x1 = 0.9002 | 935.57 | 1148 | 0.61
313.15 K, x1 = 0.9555 | 944.49 | 1146 | 0.615
323.15 K, x1 = 0.0502 | 803.29 | 1204 | 2.06
323.15 K, x1 = 0.1123 | 811.3 | 1184 | 1.825
323.15 K, x1 = 0.1499 | 816.2 | 1172 | 1.689
323.15 K, x1 = 0.2103 | 824.2 | 1160 | 1.488
323.15 K, x1 = 0.2508 | 829.57 | 1153 | 1.367
323.15 K, x1 = 0.3121 | 837.88 | 1143 | 1.22
323.15 K, x1 = 0.3576 | 844.05 | 1137 | 1.093
323.15 K, x1 = 0.4113 | 851.48 | 1131 | 0.97
323.15 K, x1 = 0.4632 | 858.73 | 1126 | 0.857
323.15 K, x1 = 0.5111 | 865.59 | 1123 | 0.765
323.15 K, x1 = 0.552 | 871.51 | 1121 | 0.689
323.15 K, x1 = 0.6008 | 878.65 | 1119 | 0.607
323.15 K, x1 = 0.6498 | 885.85 | 1117 | 0.568
323.15 K, x1 = 0.7108 | 894.96 | 1115 | 0.532
323.15 K, x1 = 0.7554 | 901.77 | 1114 | 0.535
323.15 K, x1 = 0.8112 | 910.41 | 1113 | 0.537
323.15 K, x1 = 0.8501 | 916.42 | 1112 | 0.54
323.15 K, x1 = 0.9002 | 924.3 | 1111 | 0.544
323.15 K, x1 = 0.9555 | 933.24 | 1110 | 0.548
